In US20090170860A1, “Use of PARP-1 Inhibitors” (PHARMA MAR, S.A., SOCIEDAD UNIPERSONAL, priority 2005, published 2009):
Read-outs that look alike come from different tables or passages of the source.

Columns and labels:
[1] = tested on: SW620 colon carcinoma cells; assay: MTS cytotoxicity assay, ET-743 with or without PARP inhibitor; assay type: cell-based; settings: for increased sensitization of cells to ET-743: SW620, PARP inhibitor (nicotinamide 10 mM or NU1025 100 μM) plus ET-743 versus ET-743 alone; for IC50: 72 hours, MTS
Method: Four hours later, media containing ET-743 and the PARP inhibitor was washed out and replaced with another fixed dose of PARP inhibitor. Finally, 4 hours later, a final fixed dose of PARP inhibitor was added. 72 hours following the initial treatment, an MTS cytotoxicity assay was performed.

[2] = molecular target: PARP (Homo sapiens, UniProt P09874); settings: cited from earlier work
PARP, sequence (P09874 whole entry): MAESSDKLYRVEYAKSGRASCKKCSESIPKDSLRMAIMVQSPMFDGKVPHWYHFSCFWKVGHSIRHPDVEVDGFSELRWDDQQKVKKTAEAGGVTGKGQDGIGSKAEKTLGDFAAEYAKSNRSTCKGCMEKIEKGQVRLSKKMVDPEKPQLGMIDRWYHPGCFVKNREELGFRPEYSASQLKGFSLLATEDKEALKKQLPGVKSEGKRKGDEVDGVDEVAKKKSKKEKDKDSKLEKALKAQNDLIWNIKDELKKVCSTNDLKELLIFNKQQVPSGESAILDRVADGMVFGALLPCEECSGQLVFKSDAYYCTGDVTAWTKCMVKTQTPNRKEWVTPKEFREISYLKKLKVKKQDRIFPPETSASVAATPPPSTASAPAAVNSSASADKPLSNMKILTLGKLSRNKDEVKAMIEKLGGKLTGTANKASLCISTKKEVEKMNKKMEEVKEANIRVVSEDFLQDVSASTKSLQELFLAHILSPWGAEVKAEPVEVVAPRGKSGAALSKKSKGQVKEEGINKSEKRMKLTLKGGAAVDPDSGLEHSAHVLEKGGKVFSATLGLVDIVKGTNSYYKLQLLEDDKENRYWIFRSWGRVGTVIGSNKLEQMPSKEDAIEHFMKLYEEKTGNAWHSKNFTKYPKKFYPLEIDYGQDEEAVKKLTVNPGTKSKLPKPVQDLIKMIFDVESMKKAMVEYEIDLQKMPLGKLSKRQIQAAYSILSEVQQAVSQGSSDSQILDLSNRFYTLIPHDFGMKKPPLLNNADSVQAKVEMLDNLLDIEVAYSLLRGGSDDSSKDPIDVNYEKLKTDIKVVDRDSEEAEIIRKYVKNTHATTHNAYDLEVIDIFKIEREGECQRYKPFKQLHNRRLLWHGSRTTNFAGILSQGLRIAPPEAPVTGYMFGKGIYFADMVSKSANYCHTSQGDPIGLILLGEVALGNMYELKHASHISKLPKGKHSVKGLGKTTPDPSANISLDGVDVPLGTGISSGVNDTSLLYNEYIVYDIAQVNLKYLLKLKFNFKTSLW

[3] = tested on: PARP-1 +/+ and −/− mouse embryonic fibroblasts (MEFs); assay: MTS cytotoxicity assay in PARP-1 +/+ and −/− MEFs; assay type: cell-based; settings: PARP-1 −/− versus +/+ MEFs, 72 hours after treatment
Method: PARP-1 +/+and −/− mouse embryonic fibroblasts (MEFs) were seeded into 96-well plates at a density of 5,000 cells/well. After 24 hours, cells were treated with serially diluted concentrations of ET-743. 72 hours following the initial treatment, an MTS (3-(4,5-dimethylthiazol-2-yl)-5([…])-2-(4-sulfophenyl)-2H-tetrazolium) cytotoxicity assay was performed. Results were plotted as percent cellular viability versus ET-743 or Zalypsis® concentration (FIGS. 1a and 1b, respectively).

## Cc1nc2c(O)cccc2c(=O)[nH]1 [NU1025]
[1]; SW620, NU1025 alone (100 μM), versus untreated cells
  cytotoxicity, PARP inhibitor treatment alone: no increased level of cytotoxicity above the untreated cells
[1]
  increased sensitization of cells to ET-743: 4.8 fold
[2]
  potency as PARP inhibitor relative to nicotinamide: up to 1,000 times

## COc1cc2c(cc1O)CCN[C@]21CS[C@@H]2c3c(OC(C)=O)c(C)c4c(c3[C@H](COC1=O)N1[C@@H]2[C@H]2c3c(cc(C)c(OC)c3O)C[C@@H]([C@@H]1O)N2C)OCO4 [ET-743, Ecteinascidin-743]
[1]; Homo sapiens, SW-620, SW620, ET-743 alone, NU1025 experiment, read-out: IC50 ET-743 alone (FIG. 2b)
  IC50: 1.8 nM
[1]; Homo sapiens, SW-620, SW620, ET-743 alone, nicotinamide experiment, read-out: IC50 ET-743 alone (FIG. 2a)
  IC50: 2 nM
[1]; Homo sapiens, SW-620, SW620, NU1025 100 μM, 2 hour pre-treatment and repeated fixed doses, read-out: IC50 ET-743 in combination with NU1025 (FIG. 2b)
  IC50: 0.37 nM
[1]; Homo sapiens, SW-620, SW620, nicotinamide 10 mM, 2 hour pre-treatment and repeated fixed doses, read-out: IC50 ET-743 in combination with nicotinamide (FIG. 2a)
  IC50: 0.41 nM
[3]
  increase in cellular sensitivity on loss of PARP-1: ~30 fold

## NC(=O)c1cccnc1 [nicotinamide]
[1]; Homo sapiens, SW-620, SW620, nicotinamide alone (10 mM), read-out: cell death, PARP inhibitor treatment alone
  inhibition at 10000 µM: ~20%
[1]
  increased sensitization of cells to ET-743: 4.9 fold

## COc1c(C)cc2c(c1O)[C@@H]1[C@@H]3Cc4c(OC(C)=O)c(C)c5c(c4[C@H](CNC(=O)/C=C/c4cccc(C(F)(F)F)c4)N3[C@@H](O)[C@H](C2)N1C)OCO5 [Zalypsis®]
[3]
  increase in cellular sensitivity on loss of PARP-1: 110 fold
